Test results taken from paper doi:10.64898/2025.12.18.695077v1, “Stereospecific GPG acylation by CLN8 drives BMP biosynthesis and its loss leads to Batten disease” (biorxiv, 2025).

Columns and labels:
[1] = target: T1, CLN8 (tag-cleaved, codon-optimised human CLN8 from yeast) (Homo sapiens, UniProt Q9UBY8); test: cryo-EM structure, […] A; assay type: binding; conditions: covalent acyl-enzyme intermediate at H138 proposed (continuous density not resolved), CoA at the dimer interface, incubated with 100 uM
T1 construct: full-length, C-terminal 6xHis tag cut with Factor Xa; expressed in S. cerevisiae W303.1B; homodimer in LMNG; residues 1-15 and 261-286 disordered

[2] = target: T1, CLN8 (tag-cleaved, codon-optimised human CLN8 from yeast); test: cryo-EM structure, […] A; assay type: binding; conditions: co-purified; transmembrane pocket of each monomer at the dimer interface, not the active site

CC/C=C\C/C=C\C/C=C\C/C=C\C/C=C\C/C=C\CCC(=O)SCCNC(=O)CCNC(=O)[C@H](O)C(C)(C)COP(=O)(O)OP(=O)(O)OC[C@H]1O[C@@H](n2cnc3c(N)ncnc32)[C@H](O)[C@@H]1OP(=O)(O)O [C22:6-CoA]
cryo-EM structure, 2.7 A ([1]; C22:6 chain modelled in the active site): we determined cryo-EM structures of CLN8 prepared in the presence of either C18:1-CoA or C22:6-CoA

CC(C)(COP(=O)(O)OP(=O)(O)OC[C@H]1O[C@@H](n2cnc3c(N)ncnc32)[C@H](O)[C@@H]1OP(=O)(O)O)[C@@H](O)C(=O)NCCC(=O)NCCS [CoA]
cryo-EM structure, 3.65 A [2]: we observed two coenzyme A (CoA) molecules bound in pockets located within the transmembrane region

CCCCCCCC/C=C\CCCCCCCC(=O)SCCNC(=O)CCNC(=O)[C@H](O)C(C)(C)COP(=O)(O)OP(=O)(O)OC[C@H]1O[C@@H](n2cnc3c(N)ncnc32)[C@H](O)[C@@H]1OP(=O)(O)O [C18:1-CoA]
cryo-EM structure, 2.7 A ([1]; oleoyl chain modelled in the active site): we determined cryo-EM structures of CLN8 prepared in the presence of either C18:1-CoA or C22:6-CoA
